Data reported in ChEMBL document CHEMBL5321279 (J Med Chem, 2023).
≈ marks a conversion by molar mass, not a printed value.

Legend:
[1] = Stability of compound in human gastrointestinal S9 fraction assessed as half life at pH 7.4 measured upto 120 mins by LC-MS/MS analysis; assay type: ADME, subcellular, Gastrointestinal tract
[2] = Lipophilicity, logD of compound; assay type: physicochemical; conditions: octanol/water
[3] = Aqueous stability of the compound assessed as compound remaining at pH 2 measured at 24 hrs by UPLC analysis; assay type: physicochemical; conditions: aqueous solution, read-out: Stability
[4] = Stability of compound in rat plasma assessed as half life measured upto 4 hrs by LC-MS/MS analysis; assay type: ADME, cell-free
[5] = Stability of compound in rat liver S9 fraction assessed as half life at pH 7.4 measured upto 90 mins by LC-MS/MS analysis; assay type: ADME, subcellular
[6] = Stability of compound in dog gastrointestinal S9 fraction assessed as half life at pH 7.4 measured upto 120 mins by LC-MS/MS analysis; assay type: ADME, subcellular, Canis lupus familiaris, Gastrointestinal tract
[7] = Thermodynamic aqueous solubility at pH 2 measured at 72 hrs by UPLC analysis; assay type: physicochemical; conditions: aqueous solution, read-out: Therm_solubility
[8] = Stability of compound in cynomolgus monkey plasma assessed as half life measured upto 4 hrs by LC-MS/MS analysis; assay type: ADME, cell-free, Macaca fascicularis
[9] = Stability of compound in human liver S9 fraction assessed as half life at pH 7.4 measured upto 90 mins by LC-MS/MS analysis; assay type: ADME, subcellular
[10] = Stability of compound in rat gastrointestinal S9 fraction assessed as half life at pH 7.4 measured upto 120 mins by LC-MS/MS analysis; assay type: ADME, subcellular, Gastrointestinal tract
[11] = Stability of compound in dog liver S9 fraction assessed as half life at pH 7.4 measured upto 90 mins by LC-MS/MS analysis; assay type: ADME, subcellular, Canis lupus familiaris
[12] = Thermodynamic aqueous solubility at pH 7 measured at 24 hrs by UPLC analysis; assay type: physicochemical; conditions: aqueous solution, read-out: Therm_solubility
[13] = Stability of compound in cynomolgus monkey liver S9 fraction assessed as half life at pH 7.4 measured upto 90 mins by LC-MS/MS analysis; assay type: ADME, subcellular, Macaca fascicularis
[14] = Stability of compound in dog plasma assessed as half life measured upto 4 hrs by LC-MS/MS analysis; assay type: ADME, cell-free, Canis lupus familiaris
[15] = Apparent permeability of the compound from apical to basolateral side in human Caco-2 cells incubated for 2 hrs by LC-MS/MS analysis; assay type: ADME, cell-based; conditions: for Papp A→B at 2 h: Caco-2
[16] = Stability of compound in human plasma assessed as half life measured upto 4 hrs by LC-MS/MS analysis; assay type: ADME, cell-free
[17] = Aqueous stability of the compound assessed as compound remaining at pH 7 measured at 24 hrs by UPLC analysis; assay type: physicochemical; conditions: aqueous solution, read-out: Stability
[18] = Efflux ratio of permeability in human Caco-2 cells from basolateral to apical side over apical to basolateral side in human Caco-2 cells incubated for 2 hrs by LC-MS/MS analysis; assay type: ADME, cell-based; conditions: caco-2, 2 h
[19] = Stability of compound in cynomolgus monkey gastrointestinal S9 fraction assessed as half life at pH 7.4 measured upto 120 mins by LC-MS/MS analysis; assay type: ADME, subcellular, Macaca fascicularis, Gastrointestinal tract
[20] = Prodrug conversion in SARS-CoV-2 infected in ferret assessed as (2R,3R,4S,5R)-2-(4-aminopyrrolo[2,1-f][1,2,4]triazin-7-yl)-3,4-dihydroxy-5-(hydroxymethyl)tetrahydrofuran-2-carbonitrile mediated log10 reduction of genomic RNA at 10 mg/kg, po BID measured after 4 days by RT-qPCR analysis; assay type: ADME, organism-based, Mustela putorius furo; conditions: in vivo, 96 h, time 4 day
[21] = Cmax in mouse infected with SARS-CoV-2 assessed as prodrug conversion by measuring (2R,3R,4S,5R)-2-(4-aminopyrrolo[2,1-f][1,2,4]triazin-7-yl)-3,4-dihydroxy-5-(hydroxymethyl)tetrahydrofuran-2-carbonitrile at 30 mg/kg, po BID measured after 4 days by LC-MS/MS analysis; assay type: ADME, organism-based; parameters: dose 30 mg/kg, time 4 day, route po; conditions: in vivo, 96 h
[22] = Prodrug conversion in SARS-CoV-2 infected in mouse assessed as (2R,3R,4S,5R)-2-(4-aminopyrrolo[2,1-f][1,2,4]triazin-7-yl)-3,4-dihydroxy-5-(hydroxymethyl)tetrahydrofuran-2-carbonitrile mediated log10 reduction of genomic RNA in lung at 30 mg/kg, po BID measured after 4 days by RT-qPCR analysis; assay type: ADME, organism-based; conditions: in vivo, 96 h, time 4 day
[23] = AUC(0 to 24 hrs) in ferret infected with SARS-CoV-2 assessed as prodrug conversion by measuring (2R,3R,4S,5R)-2-(4-aminopyrrolo[2,1-f][1,2,4]triazin-7-yl)-3,4-dihydroxy-5-(hydroxymethyl)tetrahydrofuran-2-carbonitrile at 10 mg/kg, po BID measured after 4 days by LC-MS/MS analysis; assay type: ADME, organism-based, Mustela putorius furo; parameters: dose 10 mg/kg, time 4 day, route po; conditions: in vivo, 96 h
[24] = Cmax in ferret infected with SARS-CoV-2 assessed as prodrug conversion by measuring (2R,3R,4S,5R)-2-(4-aminopyrrolo[2,1-f][1,2,4]triazin-7-yl)-3,4-dihydroxy-5-(hydroxymethyl)tetrahydrofuran-2-carbonitrile at 10 mg/kg, po BID measured after 4 days by LC-MS/MS analysis; assay type: ADME, organism-based, Mustela putorius furo; parameters: time 4 day, dose 10 mg/kg, route po; conditions: in vivo, 96 h
[25] = AUC(0 to 24 hrs) in SARS-CoV-2 infected mouse assessed as prodrug conversion (2R,3R,4S,5R)-2-(4-aminopyrrolo[2,1-f][1,2,4]triazin-7-yl)-3,4-dihydroxy-5-(hydroxymethyl)tetrahydrofuran-2-carbonitrile at 30 mg/kg, po BID measured after 4 days by LC-MS/MS analysis; assay type: ADME, organism-based; parameters: dose 30 mg/kg, time 4 day, route po; conditions: in vivo, 96 h
[26] = Lipophilicity, logP of compound; assay type: physicochemical; conditions: octanol/water
MT4 = test: Cytotoxicity against human MT4 cells assessed as reduction in cell growth measured after 5 days by CellTiter-Glo assay; assay type: toxicity, cell-based; conditions: mt4, 120 h, time 5 day
Hepatocyte = test: Cytotoxicity against human primary hepatocytes assessed as reduction in cell growth measured after 5 days by CellTiter-Glo assay; assay type: toxicity, cell-based; conditions: hepatocytes, 120 h, time 5 day
MRC5 = test: Cytotoxicity against human MRC5 cells assessed as reduction in cell growth measured after 5 days by CellTiter-Glo assay; assay type: toxicity, cell-based; conditions: mrc5, 120 h, time 5 day
Huh-7 = test: Cytotoxicity against human Huh-7 cells assessed as reduction in cell growth measured after 5 days by CellTiter-Glo assay; assay type: toxicity, cell-based; conditions: huh-7, 120 h, time 5 day
PBMC [27] = test: Cytotoxicity against stimulated human PBMC cells assessed as reduction in cell growth measured after 5 days by CellTiter-Glo assay; assay type: toxicity, cell-based; conditions: pbmc, 120 h, time 5 day
[28] = Cytotoxicity against human NHBE-T cells assessed as reduction in cell growth measured after 5 days by CellTiter-Glo assay; assay type: toxicity, cell-based; conditions: nhbe-t, 120 h, time 5 day
PC-3 = test: Cytotoxicity against human PC-3 cells assessed as reduction in cell growth measured after 5 days by CellTiter-Glo assay; assay type: toxicity, cell-based; conditions: pc-3, 120 h, time 5 day
PBMC [29] = test: Cytotoxicity against quiescent human PBMC cells assessed as reduction in cell growth measured after 5 days by CellTiter-Glo assay; assay type: toxicity, cell-based; conditions: pbmc, 120 h, time 5 day
HepG2 = test: Cytotoxicity against human HepG2 cells assessed as reduction in cell growth measured after 5 days by CellTiter-Glo assay; assay type: toxicity, cell-based; conditions: hepg2, 120 h, time 5 day

Row | Structure (SMILES) | half-life [1] | logD [2] | remaining at 24 h [3] | half-life [4] | half-life at […] [5] | half-life [6] | solubility thermodynamic at 72 h [7] | half-life [8] | half-life at […] [9] | half-life [10] | half-life at […] [11] | solubility thermodynamic at 24 h [12] | half-life at […] [13] | half-life [14] | Papp A→B at 2 h [15] | half-life [16] | remaining at 24 h [17] | Ratio [18] | half-life [19] | further results
1 | CC(=O)OC[C@H]1O[C@@](C#N)(c2ccc3c(N)ncnn23)[C@H](OC(C)=O)[C@@H]1OC(C)=O | < 2 min | 1.5 | 82% | < 2 min | < 2 min | 16 min | ≥ 40000 µg/mL | 9.2 min | < 2 min | > 2 min | < 2 min | 1400 µg/mL (≈ 3.35 mM) | < 2 min | 111 min | 4 ×10⁻⁶ cm/s | 4.7 min | 79% | 3 | < 2 min | 
2 | CC(C)C(=O)OC[C@H]1O[C@@](C#N)(c2ccc3c(N)ncnn23)[C@H](OC(=O)C(C)C)[C@@H]1OC(=O)C(C)C | < 2 min | 3.5 | ≥ 96% | < 2 min | 2.9 min | < 2 min | 600 µg/mL (≈ 1.2 mM) | 7.2 min | < 2 min | > 2 min | < 2 min | < 10 µg/mL | < 2 min | 182 min |  | 5.5 min | ≥ 98% | < 1 | < 2 min | log(activity) [20]: -1.98; Cmax [21]: 13 µM; log(activity) [22]: -3.29; AUC [23]: 54 µM·h; Papp ([15]; caco-2, 2 h): 22 10^-6 cm/s; Cmax [24]: 5 µM; AUC [25]: 95 µM·h
3 | CC(=O)OC[C@H]1O[C@@](C#N)(c2ccc3c(N)ncnn23)[C@H](O)[C@@H]1O | 28 min | < 0.3 | 89% | 3 min | 10 min | 226 min |  | 146 min | 19 min | > 2 min | 25 min | 1000 µg/mL (≈ 3 mM) | 5.3 min | 564 min | 1.4 ×10⁻⁶ cm/s | 70 min | 96% | 0.5 | 38 min | 
4 | [N-]=[N+]=N[C@]1(CO)O[C@@H](n2ccc(N)nc2=O)[C@H](O)[C@@H]1O [4'-AZIDOCYTIDINE] |  |  |  |  |  |  |  |  |  |  |  |  |  |  |  |  |  |  |  | logP [26]: > 2
5 | COc1ccc(C[C@H](N)C(=O)N[C@H]2[C@@H](O)[C@H](n3cnc4c(N(C)C)ncnc43)O[C@@H]2CO)cc1 [PUROMYCIN] |  |  |  |  |  |  |  |  |  |  |  |  |  |  |  |  |  |  |  | CC50 (MT4): 120 nM; CC50 (Hepatocyte): 1100 nM; CC50 (MRC5): 320 nM; CC50 (Huh-7): 430 nM; CC50 (PBMC [27]): 1100 nM; CC50 [28]: 600 nM; CC50 (PC-3): 470 nM; CC50 (PBMC [29]): 5050 nM; CC50 (HepG2): 780 nM
